This note sets out measurements from patent US9428492B2, “Secondary alcohol substituted triazoles as PDE10 inhibitors” (Merck Sharp & Dohme Corp., priority 2012, dated 2016).

Where two headings read alike, the source gives them in different places.

One data set deals with human PDE10A2 (Homo sapiens (Human), UniProt Q9Y233). Kind of data set: PDE10 fluorescence polarization (IMAP FP) inhibition assay. The class given is biochemical. The protocol: The activity of the compounds in accordance with the present invention as PDE10 inhibitors may be readily determined without undue experimentation using a fluorescence polarization (FP) methodology that is well known in the art (Huang, W., et al., J. Biomol Screen, 2002, 7: 215).
Chain of human PDE10A2 (Q9Y233 267-1055): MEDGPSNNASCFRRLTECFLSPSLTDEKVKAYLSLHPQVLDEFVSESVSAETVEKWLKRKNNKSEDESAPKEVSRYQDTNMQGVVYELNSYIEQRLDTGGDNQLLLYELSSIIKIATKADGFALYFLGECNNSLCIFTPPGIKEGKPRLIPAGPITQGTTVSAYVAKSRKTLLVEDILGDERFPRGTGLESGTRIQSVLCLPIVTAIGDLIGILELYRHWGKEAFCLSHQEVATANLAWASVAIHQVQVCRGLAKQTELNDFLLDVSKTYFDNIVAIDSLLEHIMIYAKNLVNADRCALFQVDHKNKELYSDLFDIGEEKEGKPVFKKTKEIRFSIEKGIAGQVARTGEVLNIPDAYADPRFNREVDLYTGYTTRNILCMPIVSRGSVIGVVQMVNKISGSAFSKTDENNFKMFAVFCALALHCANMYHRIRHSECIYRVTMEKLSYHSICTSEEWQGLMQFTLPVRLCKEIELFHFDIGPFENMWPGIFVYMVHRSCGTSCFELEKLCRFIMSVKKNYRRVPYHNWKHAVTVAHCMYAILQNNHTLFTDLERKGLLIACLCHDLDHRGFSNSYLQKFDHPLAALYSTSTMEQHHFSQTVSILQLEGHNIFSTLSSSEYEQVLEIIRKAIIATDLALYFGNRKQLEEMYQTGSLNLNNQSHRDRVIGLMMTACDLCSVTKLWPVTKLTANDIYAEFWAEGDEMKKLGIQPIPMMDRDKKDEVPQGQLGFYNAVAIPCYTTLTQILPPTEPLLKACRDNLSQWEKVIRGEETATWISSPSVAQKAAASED
In a typical experiment the PDE10 inhibitory activity of the compounds of the present invention was determined in accordance with the following experimental method. PDE10A2 was amplified from human fetal brain cDNA (Clontech, Mountain View, Calif.) using a forward primer corresponding to nucleotides 56-77 of human PDE10A2 (Accession No. AF127480, Genbank Identifier 4894716), containing a Kozak consensus sequence, and a reverse primer corresponding to nucleotides 2406-2413 of human PDE10A2 (Accession No. AF127480, Genbank Identifier 4894716). Amplification with Easy-A polymerase (Stratagene, La Jolla, Calif.) was 95° C. for 2 minutes followed by thirty three cycles of 95° C. for 40 seconds, 55° C. for 30 seconds, and 72° C. for 2 minutes 48 seconds. Final extension was 72° C. for 7 minutes. The PCR product was TA cloned into pcDNA3.2-TOPO (Invitrogen, Carlsbad, Calif.) according to standard protocol. AD293 cells with 70-80% confluency were transiently transfected with human PDE10A2/pcDNA3.2-TOPO using Lipofectamine 2000 according to manufacturer specifications (Invitrogen, Carlsbad, Calif.). Cells were harvested 48 hours post-transfection and lysed by sonication (setting 3, 10×5 sec pulses) in a buffer containing 20 mM HEPES, 1 mM EDTA and protease inhibitor cocktail (Roche). Lysate was collected by centrifugation at 75,000×g for 20 minutes. Supernatant containing the cytoplasmic fraction was used for evaluation of PDE10A2 activity. The fluorescence polarization assay for cyclic nucleotide phosphodiesterases was performed using an IMAP® FP kit supplied by Molecular Devices, Sunnyvale, Calif. (product # R8139). IMAP® technology has been applied previously to phosphodiesterase assays (Huang, W., et al., J. Biomol Screen, 2002, 7: 215). Assays were performed at room temperature in 384-well microtiter plates with an incubation volume of 20.2 μL. Solutions of test compounds were prepared in DMSO and serially diluted with DMSO to yield 8 μL of each of 10 solutions differing by 3-fold in concentration, at 32 serial dilutions per plate. […] 0% of inhibition is determined by using DMSO (1% final concentrations).
A Labcyte Echo 555 (Labcyte, Sunnyvale, Calif.) is used to dispense 200 nL from each well of the titration plate to the 384 well assay plate. A solution of enzyme (1/1600 dilution from aliquots; sufficient to produce 20% substrate conversion) and a separate solution of FAM-labeled cAMP PDE from Molecular Devices (product # R7506), at a final concentration of 50 nM are made in the assay buffer (10 mM Tris HCl, pH 7.2, 10 mM MgCl2, 0.05% NaN3 0.01% Tween-20, and 1 mM DTT). The enzyme and the substrate are then added to the assay plates in two consecutive additions of 10 μL, and then shaken to mix. The reaction is allowed to proceed at room temperature for 30 minutes. […] The enzymatic reaction is stopped by addition of 60 μL of the binding solution to each well of the assay plates and the plates are sealed and shaken for 10 seconds. The plate was incubated at room temperature for at least one hour prior to determining the fluorescence polarization (FP). The parallel and perpendicular fluorescence of each well of the plate was measured using a Perkin Elmer EnVision™ plate reader (Waltham, Mass.).
Fluorescence polarization (mP) was calculated from the parallel (S) and perpendicular (P) fluorescence of each sample well and the analogous values for the median control well, containing only substrate (So and Po), using the following equation: Polarization (mP)=1000*(S/So−P/Po)/(S/So+P/Po).
Dose-inhibition profiles for each compound were characterized by fitting the mP data to a four-parameter equation given below.

A further data set deals with CYP3A4 (Homo sapiens (Human), UniProt P08684). Kind of data set: time-dependent inhibition (TDI) of CYP3A4. The class given is in vitro ADME. As to conditions: for time-dependent inhibition (TDI) of the CYP3A4 enzyme: result in words.
Chain of CYP3A4 (P08684 whole entry): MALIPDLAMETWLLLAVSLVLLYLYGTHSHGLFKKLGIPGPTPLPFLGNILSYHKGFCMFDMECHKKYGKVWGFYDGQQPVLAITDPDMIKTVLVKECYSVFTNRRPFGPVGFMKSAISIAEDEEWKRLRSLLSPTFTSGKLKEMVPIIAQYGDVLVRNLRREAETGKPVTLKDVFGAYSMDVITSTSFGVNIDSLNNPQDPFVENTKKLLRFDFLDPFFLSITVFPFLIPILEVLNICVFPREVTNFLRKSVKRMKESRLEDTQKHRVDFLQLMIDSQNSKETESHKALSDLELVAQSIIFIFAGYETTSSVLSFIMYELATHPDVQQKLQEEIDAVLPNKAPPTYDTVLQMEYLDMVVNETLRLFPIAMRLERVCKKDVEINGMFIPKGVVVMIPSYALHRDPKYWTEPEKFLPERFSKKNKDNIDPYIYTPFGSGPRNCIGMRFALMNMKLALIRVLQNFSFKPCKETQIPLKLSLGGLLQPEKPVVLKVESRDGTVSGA
The next data set addresses CYP2C9 (Homo sapiens (Human), UniProt P11712). Kind of data set: reversible inhibition of CYP2C9. The class given is in vitro ADME.
Where [1] appears, read: comparison table with Compounds A, B, C, read-out: PDE10 Ki.

Chain of CYP2C9 (P11712 whole entry): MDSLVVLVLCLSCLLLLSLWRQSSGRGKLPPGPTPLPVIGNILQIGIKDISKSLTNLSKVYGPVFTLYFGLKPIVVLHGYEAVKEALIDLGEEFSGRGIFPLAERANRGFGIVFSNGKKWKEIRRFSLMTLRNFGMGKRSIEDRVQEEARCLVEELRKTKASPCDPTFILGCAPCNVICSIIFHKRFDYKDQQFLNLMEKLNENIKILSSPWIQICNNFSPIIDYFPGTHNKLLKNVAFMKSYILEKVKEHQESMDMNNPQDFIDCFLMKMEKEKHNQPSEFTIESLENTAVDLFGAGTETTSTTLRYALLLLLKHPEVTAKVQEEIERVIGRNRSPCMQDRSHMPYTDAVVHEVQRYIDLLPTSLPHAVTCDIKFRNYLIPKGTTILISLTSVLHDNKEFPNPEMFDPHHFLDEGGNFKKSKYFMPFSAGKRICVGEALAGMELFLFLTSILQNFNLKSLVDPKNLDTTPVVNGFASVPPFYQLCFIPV

Turning to `Cc1nc(N2CC(c3nc4ccccc4n3C)C2)cc(-n2nc(C)nc2[C@@H](C)O)n1` [Example 2, (R)-1-(3-methyl-1-(2-methyl-6-(3-(1-methyl-1H-benzo[d]imidazol-2-yl)azetidin-1-yl)pyrimidin-4-yl)-1H-1,2,4-triazol-5-yl)ethanol], the inhibition constant Ki at human PDE10A2 (setting [1]) turned out to be 1.2 nM. The inhibitory constant (Ki) at human PDE10A2 (read-out: PDE10a Ki) came to 1.2 nM. For the same compound, at CYP3A4, the “TDI CYP3A4 shift ratio” value was found to be 1 and the “time-dependent inhibition (TDI) of the CYP3A4 enzyme” value (from here on “time-dependent inhibition (TDI)”) is “do not exhibit TDI of CYP3A4”. Besides, at CYP2C9, the IC50 was above 50000 nM.
For the compound `Cc1nc([C@@H]2C[C@H]2c2nc3ccccc3n2C)cc(-n2nc(C)nc2[C@H](C)O)n1` [Example 13, (S)-1-(3-methyl-1-(2-methyl-6-((1R,2R)-2-(1-methyl-1H-benzo[d]imidazol-2-yl)cyclopropyl)pyrimidin-4-yl)-1H-1,2,4-triazol-5-yl)ethanol], the inhibition constant (Ki) at human PDE10A2 (setting [1]) amounted to 0.74 nM. Further, on human PDE10A2 (read-out: PDE10a Ki), the Ki is 0.74 nM. Further, on CYP3A4, the “TDI CYP3A4 shift ratio” value is given as 1 and the “time-dependent inhibition (TDI)” value is reported as “do not exhibit TDI of CYP3A4”. Moreover, the half-maximal inhibitory concentration (IC50) on CYP2C9 was above 50000 nM.
For the compound `Cc1nc([C@@H]2C[C@H]2c2nc3ccccc3n2C)cc(-n2nc(C)nc2[C@@H](C)O)n1` [Example 14, (R)-1-(3-methyl-1-(2-methyl-6-((1R,2R)-2-(1-methyl-1H-benzo[d]imidazol-2-yl)cyclopropyl)pyrimidin-4-yl)-1H-1,2,4-triazol-5-yl)ethanol], the inhibitory constant (Ki) on human PDE10A2 (setting [1]) and on human PDE10A2 (read-out: PDE10a Ki) was 1.1 nM in each case. In addition, the “TDI CYP3A4 shift ratio” value at CYP3A4 was 1. Moreover, the “time-dependent inhibition (TDI)” value at CYP3A4 was “do not exhibit TDI of CYP3A4”. On CYP2C9, this compound showed a concentration for half-maximal inhibition (IC50) above 50000 nM.

In general, Ki refers to a dissociation constant, usually derived from enzyme kinetics or from competition with a known ligand. For orientation: IC50 means the midpoint of a concentration-inhibition curve.
